The source of these data is patent publication US6727237B2, “Inhibitors of bacterial NAD synthetase” (priority 1998, dated 2004).

The target in assay [1] is T1, bacterial NAD synthetase enzyme (Bacillus subtilis, UniProt P08164).
T1 sequence (P08164 2-272 limits assumed): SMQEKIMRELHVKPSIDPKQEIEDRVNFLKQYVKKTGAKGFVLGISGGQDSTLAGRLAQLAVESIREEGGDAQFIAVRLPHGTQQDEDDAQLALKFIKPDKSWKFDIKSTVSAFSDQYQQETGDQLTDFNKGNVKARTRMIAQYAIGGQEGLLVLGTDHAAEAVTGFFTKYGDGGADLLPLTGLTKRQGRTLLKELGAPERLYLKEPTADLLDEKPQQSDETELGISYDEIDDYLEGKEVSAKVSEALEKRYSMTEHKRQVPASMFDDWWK
As to the kind of experiment: biochemical. The assay is classed as biochemical.

Assay [2] deals with Staphylococcus epidermitis. Kind of assay: Dose response of bacterial growth inhibition, MIC85. Particulars: for MIC: Staphylococcus, read-out: MIC85; for MIC85: minimum inhibitory concentration to achieve 85% inhibition, S. epidermitis.
For assay [3], the system named is Staphylococcus epidermitis. Kind of assay: Bacterial growth inhibition screen in LB media (absorbance 595 nm), percent inhibition. Particulars: for inhibition of growth at 100 µM / inhibition of growth at 10 µM: Staphylococcus, read-out: % Inhibition, S. epidermitis; for % Inhibition: S. epidermitis.
Where [4] appears, read: compound at 0.2 mM (Table 312A).
The mark [5] stands for this setting: lead compounds (Table 318A), read-out: IC 50.

Converted amounts (≈) assume the structure as drawn. “And” between values parts separate entries of the source, which are not always exact repeats. Equal values may be shown once. Read-outs that look alike come from different tables or passages of the source.

As for `COC(=O)c1cc2cc(OCc3ccccc3)ccc2n1CCCCCCC[n+]1ccccc1` [Compound 229], in assay [1], the IC50 was found to be 25 µM and the inhibition at 100 µM was found to be 99.3%. For the same molecule, the MIC in assay [2] came out at 3 µM. For the same molecule, in assay [3] (concentration screened 100 uM), the inhibition of growth at 100 µM was 98%.

`FC(F)(F)c1ccc2cc(CCC[n+]3ccccc3)[nH]c2c1` [Compound 288]: the “% Inhibition” value in assay [1] (compound at 0.1 mM (Table 314)) came to 42.38%; in assay [3] (concentration screened 10 uM), 99.65%. Moreover, in assay [2], the MIC85 was 30 µM.

Take `Cc1ccc2[nH]c(CCCCC[n+]3ccccc3)cc2c1` [Compound 296]: the results for the “% Inhibition” value in assay [1] (setting [4]) and in assay [3] (concentration screened 10 uM) were 16.79% and 87.47%, respectively. The MIC85 in assay [2] worked out at 30 µM.

With `Cc1ccc2[nH]c(CCCCCC[n+]3ccccc3)cc2c1` [Compound 297], the “% Inhibition” value in assay [1] (compound at 0.1 mM (Table 314)) turned out to be 50.83%; in assay [3] (concentration screened 100 uM), 100.00%. Besides, in assay [2], the MIC85 was 30 µM.

As to `C[n+]1cc(C(=O)OCCCCCCn2ccc3cc([N+](=O)[O-])ccc32)cc2ccccc21` [Compound 832], in assay [1], the IC50 was 90 µM and at 100 µM the inhibition was 78.6%. Besides, the MIC in assay [2] was 30 µM. Moreover, the inhibition of growth at 10 µM in assay [3] (concentration screened 10 uM) came out at 94.7%.

For `COc1ccc2[nH]c(CCCCCC[n+]3ccccc3)cc2c1` [Compound 375], the entries for the “% Inhibition” value in assay [1] (compound at 0.1 mM (Table 314)) and in assay [3] (concentration screened 100 uM) were 60.14% and 100.00%, respectively. This molecule registered an MIC85 in assay [2] of 30 µM.

Consider `COC(=O)c1ccc2ccn(CCCCCCC[n+]3ccccc3)c2c1` [Compound 213], for which, in assay [1], the IC50 was found to be 65 µM and the inhibition at 200 µM was determined as 90.7%. Besides, the MIC in assay [2] was found to be 10 µM. Moreover, the inhibition of growth at 10 µM in assay [3] (concentration screened 10 uM) came out at 97.4%.

For `FC(F)(F)c1ccc2cc(CCCCCC[n+]3ccccc3)[nH]c2c1` [Compound 291], the “% Inhibition” value in assay [1] (setting [4]) was 71.94%; in assay [3] (concentration screened 100 uM), 100.00%. In assay [2], this molecule registered an MIC85 of 30 µM.

On to `C[n+]1cccc(C(=O)OCCCCCCn2ccc3cc(OCc4ccccc4)ccc32)c1` [Compound 767], for which, in assay [1], the IC50 came to 60 µM and the inhibition at 100 µM turned out to be 96%. The MIC in assay [2] turned out to be 10 µM. The inhibition of growth at 100 µM in assay [3] (concentration screened 100 uM) was 91.8%.

Take `COC(=O)c1ccc2ccn(CCCCCCCCC[n+]3cccc(C(=O)OC)c3)c2c1` [Compound 222]: the figures for the “% Inhibition” value in assay [1] (setting [4]) and in assay [3] (concentration screened 10 uM) were 52.98% and 98.50%, respectively. In assay [2], this molecule yielded an MIC85 of 30 µM.

Turning to `COc1ccc2[nH]c(CCCCC[n+]3ccccc3)cc2c1` [Compound 374], the “% Inhibition” value in assay [1] (compound at 0.1 mM (Table 314)) amounted to 31.84%; in assay [3] (concentration screened 100 uM), 100.00%. In assay [2], this molecule registered an MIC85 of 30 µM.

For `COC(=O)c1ccc[n+](CCCCCCCCCn2c(C(=O)OC)cc3ccccc32)c1` [Compound 190], the IC50 in assay [1] was 50 µM. For the same molecule, the MIC in assay [2] turned out to be 3 µM. The inhibition of growth at 100 µM in assay [3] (concentration screened 100 uM) came to 97.7%.

In the case of `C[n+]1cccc(C(=O)OCCCCCn2ccc3cc(OCc4ccccc4)ccc32)c1` [Compound 766], in assay [1], the IC50 is 65 µM and 100 µM produced 91.2% inhibition. Moreover, the MIC in assay [2] is 30 µM. The inhibition of growth at 10 µM in assay [3] (concentration screened 10 uM) is 90.5%.

In assay [1], `C[N+](C)(C)c1ccc(CC(=O)OCCCCCn2ccc3cc(OCc4ccccc4)ccc32)cc1` [Compound 746] displayed an IC50 of 50 µM and an inhibition at 100 µM of 91.3%. Further, the MIC in assay [2] was 10 µM. For the same molecule, the inhibition of growth at 10 µM in assay [3] (concentration screened 10 uM) was 96.8%.

On to `O=C(OCCCCCn1ccc2cc([N+](=O)[O-])ccc21)c1cnc2ccccc2c1` [Compound 831], for which the entries for the “% Inhibition” value in assay [1] (compound at 0.1 mM (Table 314)) and in assay [3] (concentration screened 10 uM) were 26.21% and 84.68%, respectively. Further, the MIC85 in assay [2] worked out at 30 µM (≈ 12.1 µg/mL).

For the molecule `c1ccc(C(c2ccccc2)(c2ccccc2)c2ccc3[nH]c(CCCC[n+]4ccc5ccccc5c4)cc3c2)cc1` [Compound 553], the “% Inhibition” value in assay [1] (compound at 0.1 mM (Table 314)) is recorded as 49.49%; in assay [3] (concentration screened 10 uM), 94.92%. In assay [2], this molecule displayed an MIC85 of 10 µM.

As to `FC(F)(F)c1ccc2[nH]c(CCCCCC[n+]3ccccc3)cc2c1` [Compound 363], the “% Inhibition” value in assay [1] (setting [4]) was 75.01%; in assay [3] (concentration screened 100 uM), 100.00%. This molecule also registered an MIC85 in assay [2] of 30 µM.

Regarding `C[N+](C)(C)c1ccc(CC(=O)OCCCCCCn2ccc3cc(OCc4ccccc4)ccc32)cc1` [Compound 747], in assay [1], the IC50 stood at 70 µM and 100 µM produced 97.8% inhibition. In assay [2], the MIC amounted to 10 µM. Besides, in assay [3] (concentration screened 10 uM), the inhibition of growth at 10 µM is 97.9%.

In turn, `C[N+](C)(C)c1ccc(CC(=O)OCCCCCCCn2ccc3cc(OCc4ccccc4)ccc32)cc1` [Compound 748] displayed an inhibition at 100 µM in assay [1] of 98.4%. Further, the IC50 in assay [1] (setting [5]) worked out at 30 µM. In assay [2], the MIC turned out to be 10 µM. In addition, the inhibition of growth at 100 µM in assay [3] (concentration screened 100 uM) came out at 98.4%.

As for `CN(C)c1ccc(CC(=O)OCCCCCCCCCn2ccc3cc([N+](=O)[O-])ccc32)cc1` [Compound 853], the “% Inhibition” value is recorded as 73.46% in assay [1] (compound at 0.1 mM (Table 314)) and 98.58% in assay [3] (concentration screened 10 uM). Besides, the IC50 in assay [1] (setting [5]) was determined as 45 µM. This molecule came in with an MIC85 in assay [2] of 30 µM (≈ 14 µg/mL).

As for `Cc1ccc2[nH]c(CCCC[n+]3ccccc3)cc2c1` [Compound 295], the “% Inhibition” value in assay [1] (compound at 0.1 mM (Table 314)) is 25.05%; in assay [3] (concentration screened 10 uM), 94.48%. The molecule further had an MIC85 in assay [2] of 10 µM.

For the molecule `FC(F)(F)c1ccc2[nH]c(CCCCC[n+]3ccccc3)cc2c1` [Compound 362], the “% Inhibition” value in assay [1] (compound at 0.1 mM (Table 314)) came to 8.31%; in assay [3] (concentration screened 100 uM), 100.00%. Further, the MIC85 in assay [2] worked out at 30 µM.

Regarding `C[n+]1cccc(C(=O)OCCCCCCCn2ccc3cc(OCc4ccccc4)ccc32)c1` [Compound 768], in assay [1], the IC50 was determined as 30 µM and 100 µM produced 98.6% inhibition. For the same molecule, the MIC in assay [2] worked out at 10 µM. For the same molecule, the inhibition of growth at 100 µM in assay [3] (concentration screened 100 uM) was 96.1%.

In the case of `COc1ccc2c(ccn2CCCCCCCOC(=O)Cc2ccc([N+](C)(C)C)cc2)c1` [Compound 743], the “% Inhibition” value in assay [1] (compound at 0.1 mM (Table 314)) worked out at 94.10%; in assay [3] (concentration screened 10 uM), 97.67%. Further, in assay [2], the MIC85 worked out at 10 µM.

For `c1ccc(C(c2ccccc2)(c2ccccc2)c2ccc3[nH]c(CCC[n+]4ccc5ccccc5c4)cc3c2)cc1` [Compound 552], the “% Inhibition” value in assay [1] (compound at 0.1 mM (Table 314)) was determined as 15.24%; in assay [3] (concentration screened 10 uM) it was 50.00%. The molecule also showed an MIC85 in assay [2] of 30 µM.

As for `Cc1ccc2[nH]c(CCCCC[n+]3ccc4ccccc4c3)cc2c1` [Compound 512], the “% Inhibition” value in assay [1] (setting [4]) is listed as 17.50%; in assay [3] (concentration screened 100 uM), 99.71%. Besides, in assay [2], the MIC85 stood at 30 µM.

In assay [1], `COC(=O)c1ccc2ccn(CCCCCCCCC[n+]3ccccc3)c2c1` [Compound 214] came in with an IC50 of 30 µM and an inhibition at 100 µM of 82.8%. For the same molecule, in assay [2], the MIC was determined as 10 µM. Further, the inhibition of growth at 100 µM in assay [3] (concentration screened 100 uM) stood at 98.1%.

Regarding `COc1ccc2c(ccn2CCCCCCCCOC(=O)Cc2ccc([N+](C)(C)C)cc2)c1` [Compound 744], the “% Inhibition” value in assay [1] (setting [4]) was 95.85%; in assay [3] (concentration screened 10 uM) it was 97.74%. In assay [2], this molecule registered an MIC85 of 30 µM.

As for `COC(=O)c1ccc[n+](CCCCCCCn2ccc3cc([N+](=O)[O-])ccc32)c1` [Compound 12], the “% Inhibition” value in assay [1] (compound at 0.1 mM (Table 314)) was 62.22%; in assay [3] (concentration screened 10 uM), 99.22% and 95.73%. The same molecule had an MIC85 in assay [2] of 30 µM.

For the molecule `COC(=O)c1cc2ccccc2n1CCCCCCCCC[n+]1ccccc1` [Compound 182], in assay [1], the IC50 was found to be 60 µM and the inhibition at 100 µM was determined as 95.4%. Also, in assay [2], the MIC was 10 µM. In addition, in assay [3] (concentration screened 100 uM), the inhibition of growth at 100 µM was 97.7%.

The inhibition is the percentage by which the read-out fell short of the control. Higher therefore signals a strong effect. Usually % Inhibition stands for the change of the read-out against control, counted positive when it falls.
